Source: patent US20100028485A1, “TALAROMYCES EMERSONII ENZYME SYSTEMS” (priority 2006, published 2010)
Read-outs that look alike come from different tables or passages of the source.

Legend:
Format in all cases: biochemical, Talaromyces emersonii
[1] = test system: EG V, EG VI and EG VII; assay: Effects of metal ions, reagents, phenolics and glycosides stated for all three enzymes; conditions: for effect of phenolic substances on enzyme activity: pre-incubation of enzyme with compound in the absence of substrate
Description: (§1) Substrate specificity on various polysaccharides and synthetic glycosides was evaluated by 15 measuring activity against a wide variety of carbohydrates (BBG, lichenan, CMC, other polysaccharides and synthetic glycosides) using the normal β-glucanase assay procedure. • Effects Of Metal Ions, Chemical Modification Reagents And Potential Inhibitors A range of monovalent, divalent and heavy metal ions, at final assay concentrations of 1.0 mM, were investigated for their potential effects on the activities of EG V, EG VI and EG VII, by incubating the enzymes with the chemicals and then conducting the normal enzyme assay. Finally, the inhibitor effects of glycosides, such as disaccharides, lactones and flavanoid glycosides on the purified enzymes were examined. Specified concentrations of each glycoside were included in normal assay cocktails and residual activity determined by comparison with controls (no glycoside present).
(§2) Activity was expressed as a % relative to a control (no metal ion present in incubation mixture). In general, heavy metal ions are thought to inactivate enzymes by forming covalent salts with cysteine, histidine or carboxyl groups. […] A selection of reagents known to modify amino acid R-groups in proteins were tested for their effects on EG V, EG VI and EG VII, both in the absence and presence of substrate (substrate-protective effects could be observed in this manner) (see Table 6).

[2] = test system: EG V; assay: Effects of metal ions, chemical modification reagents, detergents and potential inhibitors on EG V; set-up: decrease in activity of EG V by detergent / loss of activity of EG V by detergent: concentration or dose not given beside the values; conditions: for EG V activity, Enzyme + reagent (control = 100.0): Preincubation of enzyme with reagent for 30 min (50 C) prior to addition of substrate; for EG V activity, Substrate + reagent (control = 100.0): Preincubation of substrate with reagent for 30 min (50 C) prior to addition of enzyme
Description: as §1, §2

[3] = test system: EG VI; assay: Effects of metal ions, chemical modification reagents, detergents and potential inhibitors on EG VI; conditions: for EV VI activity, Enzyme + reagent (control = 100.0): Preincubation of enzyme with reagent for 30 min (50 C) prior to addition of substrate; for EGVI activity, Substrate + reagent (control = 100.0): Preincubation of substrate with reagent for 30 min (50 C) prior to addition of enzyme
Description: as §1, §2

[4] = test system: EG VII; assay: Effects of metal ions, chemical modification reagents, detergents and potential inhibitors on EG VII; conditions: for EG VII activity, Enzyme + reagent (control = 100.0): Preincubation of enzyme with reagent for 30 min (50 C) prior to addition of substrate; for EG VII activity, Substrate + reagent (control = 100.0): Preincubation of substrate with reagent for 30 min (50 C) prior to addition of enzyme
Description: as §1, §2

[5] = pre-incubated with enzyme in advance of the addition of substrate

[Zn+2] [Zn^230]
effect of metal ion on activity of all three enzymes ([1]; 1 mM metal ion): enhanced the activity

OC[C@H]1O[C@@H](Oc2ccc(O)cc2)[C@H](O)[C@@H](O)[C@@H]1O [arbutin]
effect of glycosides/disaccharides on activity of EG V-VII [1]: no apparent effect

O=C(O)/C=C/c1ccc(O)c(O)c1 [caffeic acid]
effect of phenolic substances on enzyme activity [1]: did not have a marked inhibitory effect | effect of phenolic substances on enzyme activity ([1]; listed as cafeic acid): markedly activated

O=C[C@H](O)[C@@H](O)[C@H](O[C@@H]1O[C@H](CO)[C@@H](O)[C@H](O)[C@H]1O)[C@H](O)CO [cellobiose]
concentrations that markedly inhibited all three enzymes [1]: 50 to 75 mM

O=c1ccc2cc(O[C@@H]3O[C@H](CO)[C@@H](O)[C@H](O)[C@H]3O)c(O)cc2o1 [esculin]
effect of glycosides/disaccharides on activity of EG V-VII [1]: no apparent effect

COc1cc(/C=C/C(=O)O)ccc1O [ferulic acid]
effect of phenolic substances on enzyme activity [1]: did not have a marked inhibitory effect

OC[C@H]1O[C@@H](O[C@H]2[C@H](O)[C@@H](O)C(O)O[C@@H]2CO)[C@H](O)[C@@H](O)[C@H]1O (stereo partly drawn) [lactose]
concentrations inhibiting EG V [2]: > 75 mM

Oc1cccc(-c2ccccc2)c1 [m-phenylphenol]
effect of phenolic substances on enzyme activity [1]: did not have a marked inhibitory effect

OC[C@H]1O[C@H](O[C@H]2[C@H](O)[C@@H](O)[C@H](O)O[C@@H]2CO)[C@H](O)[C@@H](O)[C@@H]1O [maltose]
effect of glycosides/disaccharides on activity of EG V-VII [1]: no apparent effect

OC[C@H]1O[C@H](OCC2O[C@@H](O)[C@H](O)[C@@H](O)[C@@H]2O)[C@H](O)[C@@H](O)[C@H]1O (stereo partly drawn) [melibiose]
effect of glycosides/disaccharides on activity of EG V-VII [1]: no apparent effect

O=Cc1ccccc1C=O [o-Phthaldialdehyde]
EG V activity, Enzyme + reagent (control = 100.0) [2]: 106.1 | EG V activity, Substrate + reagent (control = 100.0) [2]: 94.6 | EV VI activity, Enzyme + reagent (control = 100.0) [3]: 100.0 | EGVI activity, Substrate + reagent (control = 100.0) [3]: 139.0 | EG VII activity, Enzyme + reagent (control = 100.0) [4]: 155.0 | EG VII activity, Substrate + reagent (control = 100.0) [4]: 98.8

O=C(O)/C=C/c1ccccc1O [o-coumaric acid]
effect of phenolic substances on enzyme activity [1]: did not have a marked inhibitory effect

O=C(O)c1cc[c]([Hg][Cl])cc1 [p-Chloromercuribenzoate]
EG V activity, Enzyme + reagent (control = 100.0) [2]: 125.4 | EG V activity, Substrate + reagent (control = 100.0) [2]: 89.7 | EV VI activity, Enzyme + reagent (control = 100.0) [3]: 115.4 | EGVI activity, Substrate + reagent (control = 100.0) [3]: 107.1 | EG VII activity, Enzyme + reagent (control = 100.0) [4]: 105.4 | EG VII activity, Substrate + reagent (control = 100.0) [4]: 91.6

O=C(O)c1ccc(O)c(O)c1 [protocatechuic acid]
effect of phenolic substances on enzyme activity [1]: markedly activated

OCc1ccccc1O[C@@H]1O[C@H](CO)[C@@H](O)[C@H](O)[C@H]1O [salicin]
effect of glycosides/disaccharides on activity of EG V-VII [1]: no apparent effect

OC[C@@H](O)[C@@H](O)[C@H](O)[C@@H](O)CO [sorbitol]
effect of glycosides/disaccharides on activity of EG V-VII [1]: no apparent effect

OC[C@H]1O[C@@](CO)(O[C@H]2O[C@H](CO)[C@@H](O)[C@H](O)[C@H]2O)[C@@H](O)[C@@H]1O [sucrose]
effect of glycosides/disaccharides on activity of EG V-VII [1]: no apparent effect

C[C@H](CCC(=O)NCCS(=O)(=O)O)[C@H]1CC[C@H]2[C@@H]3[C@H](O)C[C@@H]4C[C@H](O)CC[C@]4(C)[C@H]3C[C@H](O)[C@]12C [taurocholic acid]
decrease in activity of EG V by detergent [2]: 47.7%

C[C@H](CCC(=O)NCCS(=O)(=O)O)[C@H]1CC[C@H]2[C@@H]3CC[C@@H]4C[C@H](O)CC[C@]4(C)[C@H]3C[C@H](O)[C@]12C [taurodeoxycholic acid]
decrease in activity of EG V by detergent [2, 5]: 22.7%

Tween 20
decrease in activity of EG V by detergent [2, 5]: 12.7%

Tween 80
decrease in activity of EG V by detergent [2, 5]: 30.8% | loss of activity of EG V by detergent ([2]; simultaneous incubation with substrate): 34.2%
